The subject of this assay is human LDL. Nature of the assay: Lipid peroxide-suppressing action: CuSO4-induced LDL oxidation, TBARS assay (Example 1). Format: biochemical. The following applies: 0.2 mg/mL LDL + 5 μM CuSO4, 37° C., 3 hours, mean, n=2. The method, then: As an action of capturing free group (free radical-scavenging action), the effect of N-β-alanyl-5-S-glutathionyl-3,4-dihydroxyphenylalanine (5-S-GAD) on LDL oxidation was examined. As controls, dopamine and Carnosine (under trade name; N-acetylcarnosine as the ingredient name) used as eye drops for cataract were used. LDL was prepared by a fractionation and centrifugation method. A fraction at a specific gravity of 1.019 to 1.063 g/mL in serum was defined as human LDL. 5 μM CuSO4, 5-S-GAD (3 to 100 μM) and N-acetyl-carnosine (100 μM to 10 mM) or L-carnosine (10 μM to 10 mM) were added to 0.2 mg/mL LDL, for incubation at 37° C. for 3 hours. After termination of the incubation, TBARS (a substance reactive with thiobarbituric acid) was assayed. Although the TBA reaction is a non-specific reaction, the reaction is used for a method of assaying various lipid peroxide products including malone dialdehyde. An experiment of peroxidation with copper sulfate was done twice (N=2). An aqueous solution containing 3.75 mg/mL thiobarbituric acid (TBA), 150 mg/mL trichloroacetic acid (TCA) and 0.25 N hydrochloric acid (HCl) was prepared as the TBA reagent, while tetramethoxypropane was used to prepare standard solutions (2, 5, 10, 20, 40 μM). 100 μL each of an LDL sample or a standard solution was added together with 200 μL of the TBA reagent into an Eppendorf tube (1.5 mL), which was then sealed with a cap for thorough mixing. After heating at 95° C. for 15 minutes, the resulting mixture was cooled in water and centrifuged at 3000 rpm for 5 minutes. The supernatant was assayed of the absorbance (535 nm). Based on the absorbance of the standard solutions, a standard curve was prepared. Based on the standard curve, the amount of TBARS in the LDL sample was calculated (in nmol/mg LDL protein) (mean, n=2, see Table 1 and FIG. 1).

Take `NCCc1ccc(O)c(O)c1` [dopamine, reference compound]: the “Amount of TBARS” value by setting is: (10 μM added) 58.853 nmol/mg LDL protein; (30 μM added) 4.454 nmol/mg LDL protein; (100 μM added) 4.208 nmol/mg LDL protein.
